Laboratory results: patent US7312228B2, “Cytotoxic indeno and isoindoloisoquinolones” (Purdue Research Foundation, priority 2003, dated 2007)
“And” between values parts separate entries of the source, which are not always exact repeats. Equal entries are not always repeated. Where two headings read alike, the source gives them in different places.

Experiments:
MDA-MB-435 = experiment: NCI screen antiproliferative activity, breast MDA-MB-435; assay type: cell-based, human; conditions: concentration corresponding to 50% growth inhibition, read-out: cytotoxicity (GI50) breast MDA-MB-435
Experimental: (§1) Selected indenoisoquinolones described herein were examined for antiproliferative activity against the human cancer cell lines in the National Cancer Institute screen, in which the activity of each compound was evaluated with approximately 55 different cancer cell lines of diverse tumor origins.

Human recombinant top1 = molecular target: T1, Human recombinant top1 (Homo sapiens, UniProt P11387); experiment: Top1-mediated DNA cleavage reactions; assay type: biochemical; set-up: key to Top 1 Cleavage: weak activity (+); activity similar to compound 2 (++); activity greater than compound 2 (+++); conditions: for Top 1 Cleavage: tested at concentrations ranging up to 10 μM, relative to compound 2
T1 construct: made in house
T1 sequence (P11387 1-765): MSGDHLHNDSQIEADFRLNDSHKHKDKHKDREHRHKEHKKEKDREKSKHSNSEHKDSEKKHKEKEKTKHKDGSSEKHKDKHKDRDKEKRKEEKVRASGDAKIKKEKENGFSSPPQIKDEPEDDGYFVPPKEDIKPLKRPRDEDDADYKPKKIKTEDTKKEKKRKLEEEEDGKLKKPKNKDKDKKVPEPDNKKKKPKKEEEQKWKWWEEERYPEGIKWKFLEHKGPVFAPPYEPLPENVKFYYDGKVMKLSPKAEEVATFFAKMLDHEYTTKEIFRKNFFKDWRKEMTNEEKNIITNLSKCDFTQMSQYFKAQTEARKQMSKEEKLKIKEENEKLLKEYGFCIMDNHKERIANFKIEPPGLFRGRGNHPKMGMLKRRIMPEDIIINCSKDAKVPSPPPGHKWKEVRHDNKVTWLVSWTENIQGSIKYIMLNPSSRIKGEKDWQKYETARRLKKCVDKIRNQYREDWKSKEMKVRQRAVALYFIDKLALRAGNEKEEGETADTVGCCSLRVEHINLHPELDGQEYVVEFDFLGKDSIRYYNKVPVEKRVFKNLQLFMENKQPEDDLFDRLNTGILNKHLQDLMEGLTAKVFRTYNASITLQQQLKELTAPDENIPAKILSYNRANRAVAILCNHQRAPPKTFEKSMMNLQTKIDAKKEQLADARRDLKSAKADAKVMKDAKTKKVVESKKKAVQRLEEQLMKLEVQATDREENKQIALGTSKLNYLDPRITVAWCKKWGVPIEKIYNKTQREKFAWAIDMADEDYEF
Experimental: Human recombinant top1 was purified from Baculovirus as described by Pourquier et al. in J. Biol. Chem. 274:8516-23 (1999), the disclosure of which is incorporated herein by reference. The 161 bp fragment from pBluescript SK(−) phagemid DNA (Stratagene, La Jolla, Calif.) was cleaved with the restriction endonuclease Pvu II and Hind III (New England Biolabs, Beverly, Mass.) in supplied NE buffer 2 (10 μL reactions) for 1 h at 37° C., and separated by electrophoresis in a 1% agarose gel made in 1×TBE buffer. The 161 bp fragment was eluted from the gel slice (centrilutor by Amicon) and concentrated in a centricon 50 centrifugal concentrator (Amicon, Beverly, Mass.). Approximately 200 ng of the fragment was 3′-end labeled at the Hind III site by fill-in reaction with [alpha-^32P]-dGTP and 0.5 mM dATP, dCTP, and dTTP, in React 2 buffer (50 mM Tris-HCl, pH 8.0, […], 50 mM NaCl) with 0.5 units of DNA polymerase I (Klenow fragment). Unincorporated ^32P-dGTP was removed using mini Quick Spin DNA columns (Roche, Indianapolis, Ind.), and the eluate containing the 3′-end-labeled 161 bp fragment was collected. Aliquots (approximately 50,000 dpm/reaction) were incubated with top1 at 22° C. for 30 min in the presence of the tested drug. Reactions were terminated by adding SDS (0.5% final concentration). The samples (10 μL) were mixed with 30 μL of loading buffer (80% formamide, 10 mM sodium hydroxide, 1 mM sodium EDTA, 0.1% xylene cyanol, and 0.1% bromophenol blue, pH 8.0). Aliquots were separated in denaturing gels (16% polyacrylamide, 7 M urea). Gels were dried and visualized by using a Phosphoimager and ImageQuant software (Molecular Dynamics, Sunnyvale, Calif.).

SF-539 = experiment: NCI screen antiproliferative activity, CNS SF-539; assay type: cell-based; conditions: Homo sapiens, concentration corresponding to 50% growth inhibition, read-out: cytotoxicity (GI50) CNS SF-539
Experimental: as §1

DU-145 = experiment: NCI screen antiproliferative activity, prostate DU-145; assay type: cell-based; conditions: Homo sapiens, concentration corresponding to 50% growth inhibition, read-out: cytotoxicity (GI50) prostate DU-145
Experimental: as §1

HOP-62 = experiment: NCI screen antiproliferative activity, lung HOP-62; assay type: cell-based; conditions: Homo sapiens, concentration corresponding to 50% growth inhibition, read-out: cytotoxicity (GI50) lung HOP-62
Experimental: as §1

UACC-62 = experiment: NCI screen antiproliferative activity, melanoma UACC-62; assay type: cell-based; conditions: Homo sapiens, concentration corresponding to 50% growth inhibition, read-out: cytotoxicity (GI50) melanoma UACC-62
Experimental: as §1

HCT-116 = experiment: NCI screen antiproliferative activity, colon HCT-116; assay type: cell-based; conditions: Homo sapiens, concentration corresponding to 50% growth inhibition, read-out: cytotoxicity (GI50) colon HCT-116
Experimental: as §1

human cancer cell lines = experiment: NCI screen mean graph midpoint over approximately 55 cancer cell lines; assay type: cell-based; conditions: for GI50: read-out: MGM (mean graph midpoint for growth inhibition); for cytotoxicity compared with other compounds: human cancer cell cultures
Experimental: Selected indenoisoquinolones described herein were examined for antiproliferative activity against the human cancer cell lines in the National Cancer Institute screen, in which the activity of each compound was evaluated with approximately 55 different cancer cell lines of diverse tumor origins. […] The relative activities of selected indenoisoquinolines described herein were obtained from the top 1-mediated DNA cleavage assay, and are also shown in Table 1. Compounds 2 and 7 are also included the Table 1.

OVCAR-3 = experiment: NCI screen antiproliferative activity, ovarian OVCAR-3; assay type: cell-based; conditions: Homo sapiens, concentration corresponding to 50% growth inhibition, read-out: cytotoxicity (GI50) ovarian OVCAR-3
Experimental: as §1

SN12C = experiment: NCI screen antiproliferative activity, renal SN12C; assay type: cell-based; conditions: Homo sapiens, concentration corresponding to 50% growth inhibition, read-out: cytotoxicity (GI50) renal SN12C
Experimental: as §1

| SMILES | GI50 (MDA-MB-435; Homo sapiens) [µM] | top1 inhibitory activity compared with other compounds (Human recombinant top1) | Top 1 Cleavage (Human recombinant top1) | GI50 (SF-539) [µM] | GI50 (DU-145) [µM] | GI50 (HOP-62) [µM] | GI50 (UACC-62) [µM] | GI50 (HCT-116) [µM] | GI50 (human cancer cell lines; Homo sapiens) [µM] | GI50 (OVCAR-3) [µM] | GI50 (SN12C) [µM] | melting point | GI50 (MDA-MB-435) [µM] | GI50 (human cancer cell lines; average GI50 of all approximately 55 cell lines, values outside 10^-8 to 10^-4 molar taken as the limits) | pattern of top1-mediated DNA cleavage sites (Human recombinant top1) | cytotoxicity compared with other compounds (human cancer cell lines) |
| --- | --- | --- | --- | --- | --- | --- | --- | --- | --- | --- | --- | --- | --- | --- | --- | --- |
| COc1cc2c3c(n(C)c(=O)c2cc1OC)-c1cc2c(cc1C3=CCCN)OCO2 [compound 26, 11-(3′-Aminopropylidene)-5,6-dihydro-2,3-dimethoxy-6-methyl-8,9-methylenedioxy-5-oxo-11H-indeno[1,2-c]isoquinoline] | 1.8 | more potent as a top1 poison than compound 2 | +++ | 0.42 | 0.37 | 0.071 | 0.2 | 0.028 | 0.34 | 0.56 | 0.58 | > 180 °C (dec.) |  |  |  |  |
| COc1cc2c3c(n(C)c(=O)c2cc1OC)-c1cc2c(cc1C3=O)OCO2 [compound 2, reference compound] |  |  | ++ |  |  |  |  |  |  |  |  |  | 96 | 20.0 µM and 20 µM |  |  |
| COc1cc2c3c(n(C)c(=O)c2cc1OC)-c1cc2c(cc1C3=CCCCBr)OCO2 [compound 19, 11-(4′-Bromobutylidene)-5,6-dihydro-2,3-dimethoxy-6-methyl-8,9-methylenedioxy-5-oxo-11H-indeno[1,2-c]isoquinoline] | > 100 |  | 0 | 30 | 67.8 | 19.4 | 11.4 | 37.8 | 27.8 | 58.1 | > 100 | 197 to 199 °C |  |  |  |  |
| COc1cc2c3c(n(C)c(=O)c2cc1OC)-c1cc2c(cc1C3=CCCCCl)OCO2 [compound 18, 11-(4′-Chlorobutylidene)-5,6-dihydro-2,3-dimethoxy-6-methyl-8,9-methylenedioxy-5-oxo-11H-indeno[1,2-c]isoquinoline] | > 100 |  | + |  |  |  |  |  | 33.1 |  | > 100 | 196 to 201 °C |  |  |  |  |
| O=c1c2ccccc2cc2n1Cc1cc3ccccc3nc1-2 [compound 13, 12H-5,11a-Diaza-dibenzo[b,h]fluoren-11-one] | 41.8 |  | ++ | 66.7 | > 100 | 68.2 | 97.2 | 32.7 | 58.9 | 39.8 | > 100 |  |  |  | better resembled that of compound 2 than that of camptothecin | generally less cytotoxic than compound 2 |
| COc1cc2c3c(n(C)c(=O)c2cc1OC)-c1cc2c(cc1C3=CCCCCCBr)OCO2 [compound 21, 11-(6′-Bromohexylidene)-5,6-dihydro-2,3-dimethoxy-6-methyl-8,9-methylenedioxy-5-oxo-11H-indeno[1,2-c]isoquinoline] |  | higher inhibitory activity against top1 than the four-carbon alkenyl halides 19 and 24 | + |  |  |  |  |  | 7.8 |  |  | 182 to 185 °C |  |  |  | slightly more cytotoxic than compounds 18-20 |
| COc1cc2c3c(n(C)c(=O)c2cc1OC)-c1cc2c(cc1C3=CCCCCBr)OCO2 [compound 20, 11-(5′-Bromopentylidene)-5,6-dihydro-2,3-dimethoxy-6-methyl-8,9-methylenedioxy-5-oxo-11H-indeno[1,2-c]isoquinoline] | > 100 | higher inhibitory activity against top1 than the four-carbon alkenyl halides 19 and 24 |  |  |  |  | > 100 |  | 33.1 | > 100 | > 100 | 196 to 197 °C |  |  |  |  |
| COc1cc2c3c(n(C)c(=O)c2cc1OC)-c1cc2c(cc1C3=CCCCI)OCO2 [compound 24, 11-(4′-Iodobutylidene)-5,6-dihydro-2,3-dimethoxy-6-methyl-8,9-methylenedioxy-5-oxo-11H-indeno[1,2-c]isoquinoline] | 5.2 |  | 0 | 4.3 | 28.7 | 27.6 | 3.5 | 0.56 | 16.8 | 22.8 | 8.8 | 173 to 174.5 °C |  |  |  | slightly more cytotoxic than compounds 18-20 |
| COc1cc2cc3n(c(=O)c2cc1OC)Cc1cc2ccccc2nc1-3 [compound 8, 8,9-Dimethoxy-12H-5,11a-diaza-dibenzo[b,h]fluoren-11-one] | > 100 |  | + | > 100 | > 100 | > 100 | > 100 | 57.3 | 91.2 | > 100 | > 100 |  |  |  |  | generally less cytotoxic than compound 2 |
